Source: US11739053B2, “P62-ZZ chemical inhibitor” (ID4PHARMA, LLC, priority 2011, dated 2023)
Values after ≈ are worked out from the molar mass of the structure shown.

Columns and labels:
IL-6 production = assay: TNF-α induced IL-6 production by marrow stromal cells, ELISA; format: cell-based, human
Description: FIG. 5A-B: 5A. VCAM-1 expression using Western blot analysis. Normal human stromal cells were cultured with/without TNF and p62-ZZ inhibitors (#1-6) for 48 hours. The cell lysates were collected and VCAM-1 expression was measured using an anti-VCAM-1 antibody (Santa Cruz). FIG. 5B. IL-6 production by human and mouse marrow stromal cells by ELISA. Normal human and mouse marrow stromal cells were cultured with/without TNFα and p62-ZZ inhibitors (#1-6) for 48 hours. The cell culture media were collected and IL-6 production measured using an IL-6 ELISA kit (R &D). Data are shown as the means (n=2).
Normal human or mouse marrow stromal cells were maintained in 10% FBS-IMDM and treated with p62-ZZ inhibitors (#1-6) for 3 hours. Then TNFα or vehicle was added for 48 hours. Cell lysates were collected and VCAM-1 expression measured by Western blot using an anti-VCAM-1 antibody (Santa Cruz). The culture media were collected and IL-6 production was measured using an IL-6 ELISA kit (R&D Company).

phospho-PKCζ = assay: TNF-α induced PKCζ phosphorylation in marrow stromal cells, Western blot; format: cell-based, human or mouse; conditions: pre-treated 3 hours, 10 ng/ml TNF-α 5 min
Description: FIG. 6. The effect of p62-ZZ Inhibitors on phospho-PKCζ activation by TNFα stimulated MM patient and mouse marrow stromal cells. For assay of phospho-PKCz, cells were stimulated with 10 ng/ml of TNFα for 5 min and cell lysates were collected. The phospho PKCζ was assayed by Western blot using anti-phospho PKCz anti-body (Cell Signaling). Phospho-PKCζ is an unique downstream signal activated by interactions with the p62-ZZ domain. Therefore, we examined whether p62-ZZ inhibitor #3 blocked its phosphorylation. Marrow stromal cells derived from patients with multiple myeloma or mouse stromal cells were cultured in 10% FBS IMDM and then pre-treated with various p62-ZZ inhibitors for 3 hours. For assay of phospho-PKCζ, cells were stimulated with 10 ng/ml of TNF-a for 5 min and the cell lysates were collected. Phospho PKCζ was assayed by Western blot using an anti-phospho PKCζ anti-body (Cell Signaling). TNF-α induced PKCζ phosphorylation in stromal cells was blocked when the cells were pre-treated with p62-ZZ inhibitor #3 for 3 hours.

human OCL formation = assay: Human osteoclast (OCL) formation; format: cell-based; conditions: various concentrations, 2 weeks, 1 ng/ml TNFα
Description: FIG. 7A-C: 7A. CFU-Blast colony formation. Human CD34(+) cells were cultured with p62-ZZ inhibitor #3 and 1 ng/ml of rhIL-3 IL-6 and SCF for 7 days. Data are shown as the mean±SD (n=5). FIG. 7B. Human OCL formation. Non-adherent mononuclear cells (2.5×10^7 cells/10-cm dish) derived from human bone marrow samples were cultured in α-MEM containing 10% FCS, 100 pg/ml recombinant human GM-CSF(R & D) for 7 days. Then the cells were collected and plated (cell density is 1.0×10^6 cells/nil) in α-MEM containing 20% horse serum with 1 ng/ml TNFα. Half-media changes were performed twice a week containing various concentrations of the p62-ZZ inhibitor #3. The cultures were incubated for a total of 2 weeks at 37° C. with 5% CO2 and 95% humidity. The osteoclasts were stained with the 23C6 antibody which recognizes CD51/61. Data are shown as the mean±SD (n=5). *P<0.01 compared to vehicle treated cultures. 7C. OCL formation by wild type and p62−/− mouse osteoclast precursors. Data is shown as the mean±SD (n=4). *: P<0.01 compared to no-inhibitor cultures. Whether p62-ZZ inhibitor #3 affects hematopoesis since osteoclast precursors are derived from hematopoietic cells was examined. […] Colonies were scored after 7 days of culture using an inverted microscope.

[1] = system: CD11b(+) mononuclear cells from wild type mice; assay: OCL formation by wild type mouse osteoclast precursors, TRACP stain; format: cell-based; conditions: 7 days, 50 ng/ml TNFα
Description: FIG. 7A-C: 7A. CFU-Blast colony formation. Human CD34(+) cells were cultured with p62-ZZ inhibitor #3 and 1 ng/ml of rhIL-3 IL-6 and SCF for 7 days. Data are shown as the mean±SD (n=5). FIG. 7B. Human OCL formation. Non-adherent mononuclear cells (2.5×10^7 cells/10-cm dish) derived from human bone marrow samples were cultured in α-MEM containing 10% FCS, 100 pg/ml recombinant human GM-CSF(R & D) for 7 days. Then the cells were collected and plated (cell density is 1.0×10^6 cells/nil) in α-MEM containing 20% horse serum with 1 ng/ml TNFα. Half-media changes were performed twice a week containing various concentrations of the p62-ZZ inhibitor #3. The cultures were incubated for a total of 2 weeks at 37° C. with 5% CO2 and 95% humidity. The osteoclasts were stained with the 23C6 antibody which recognizes CD51/61. Data are shown as the mean±SD (n=5). *P<0.01 compared to vehicle treated cultures. 7C. OCL formation by wild type and p62−/− mouse osteoclast precursors. Data is shown as the mean±SD (n=4). *: P<0.01 compared to no-inhibitor cultures. The effects of p62-ZZ inhibitor #3 on osteoclast formation by p62^−/− OCL precursors were examined to determine the specificity of the effects of the p62-ZZ inhibitor #3 on osteoclast precursors. CDIIb(+) mononuclear cells from wild type and p62″/_mice were used. […] OCLs were scored as TRAP positive cells containing 3 or more nuclei. […]

Question: For OCCNCc1ccc(OCc2ccccc2)c(OCc2ccccc2)c1 [Compound 3, 2-[[3,4-bis(phenylmethoxy)phenyl]methylamino]ethanol], which “IL-6 production induced by TNF-α blocked compared to vehicle” value (IL-6 production; marrow stromal cells, 3 h pre-treatment, TNFα 48 hours) is on record?
Answer: 90%

Question: What about the “IL-6 production by TNF-α stimulated normal human stromal cells (result in words)” value (IL-6 production; normal human stromal cells, FIG. 5B) of the same molecule?
Answer: blocked IL-6 production

Question: What about the “TNF-α induced PKCζ phosphorylation in stromal cells” value (phospho-PKCζ) of the same molecule?
Answer: blocked

Question: What about the “human OCL formation” value (human OCL formation) of the same molecule?
Answer: blocked human OCL formation dose dependently

Question: And the IC50 ([1]; Mus musculus, Osteoclast, 168 h, read-out: IC50 concentration for OCL formation, wild type cells)?
Answer: 1 ng/mL (≈ 2.75 nM)

Question: What about the “OCL formation in wild type mice cell cultures” value ([1]; various concentrations) of the same molecule?
Answer: blocked OCL formation dose dependently
